The record followed here is patent US20180037871A1, “CANCER INITIATING CELL AND USE THEREOF” (priority 2016, published 2018).

Entries after “also recorded” stand apart in the source; their conditions may differ. Like-named read-outs stand apart in the source and are kept apart here.

The test system of test [1] is CAR+/mPSCs^Oct-4_hi C1 clone. In words: Cell viability assay (WST-1), C1 clone. Format: cell-based, mouse. Conditions: 48 h, mean ± SD. The procedure: (§1) Cells were seeded at 3×10^3 cells per well in 96-well plates and incubated for 18 h. Cells were treated with cisplatin (Sigma-Aldrich) or paclitaxel (Sigma-Aldrich) at various concentrations. After 48 h, WST-1 assay (Roche) was performed to determine cell viability according to the manufacturer's instructions. Cell viability was expressed as a percentage of the non-treated group, and the IC50 values were determined.
(In general: Formazan colour is commonly taken as a measure of viable cells.)

Test [2] relates to CAR+/mPSCs^Oct-4_hi E9 clone. In words: Cell viability assay (WST-1), E9 clone. Conditions: 48 h, mean ± SD. The test is classed as cell-based, mouse. The procedure: as §1
Test [3] has as its system CAR+/mPSCs^Oct-4_hi C7 clone. In words: Cell viability assay (WST-1), C7 clone. The test is classed as cell-based, mouse. As to conditions: 48 h, mean ± SD. The procedure:
as §1

Test [4] deals with A549 cells. In words: Cell viability assay (WST-1), A549 cells. Format: cell-based, human. Conditions: 48 h, mean ± SD. As for the experimental part: as §1
The test system of test [5] is CAR+/mPSCs^Oct-4_hi C1, E9, and C7 clones. The test is described as follows: Cell viability assay (WST-1), C1, E9 and C7 clones together. The test is classed as cell-based, mouse. Conditions: for IC50: range over C1, E9, and C7 clones, 48 h. The procedure:
as §1

Test [6] deals with blood vessel formation induced by C1 clone. The test is described as follows: Chick chorioallantoic membrane (CAM) assay of C1 clone. Format: in vivo, chicken. Conditions: 2 μM Tie2 kinase inhibitor, C1 clone 1×10^6 cells on CAM. As for the experimental part:
Fertilized chicken eggs were incubated at 37° C. in an atmosphere of 80% humidity. At day 8 of the development, 1×10^6 cells were loaded onto a membrane and implanted on the top of the growing CAM. At day 11, CAM was fixed with 4% paraformaldehyde, and photographed using a stereomicroscope and digital camera. Branching points were quantified using NIH Image J software with the angiogenesis plugin.
At day 11, CAM was fixed with 4% paraformaldehyde, and photographed using a stereomicroscope and a digital camera. Branching points were quantified using NIH Image J software with the angiogenesis plugin.

For test [7], the system named is C1 clone tumor. In words: Xenograft tumor assay of C1 clone. As to conditions: 50 mg/kg BW ip once every two days, 1×10^5 C1 cells sc, SCID mice, volume recorded day 10 to 25. Format: in vivo. The text has this:
All animal experiments were reviewed and approved by the Institutional Animal Care and Use Committee of National Taiwan University College of Medicine. For teratoma formation assay, 1×10^6 cells of CAR^+/mPSCs^Oct-4^_^hi C1, E9, and C7 clones were subcutaneously injected into 8-week-old male severe combined immunodeficiency (SCID) mice. For limiting dilution transplantation experiment, the C1 clone (10^5, 10^4, 10^3 and 10^2 cells) or CAR^+/mPSCs (10^6 cells) were subcutaneously injected into SCID mice. For C1-GFP clone and A549 cells derived tumor experiments. C1-GFP clone (1×10^5 cells) or A549 (1×10^6 cells) were subcutaneously injected into SCID mice. Tumor dimensions were measured using calipers once every 3 d, and volumes (cm^3) were calculated according to the standard formula: length×width^2/2. At the end of the experiment, the tumors were surgically excised and photographed. In metastasis assay, 3×10^5 cells of C1 clone, and CAR^+/mPSCs were injected into the lateral tail vein of SCID mice. Lung metastatic nodules were evaluated at week 5 by necropsy and histological examination. […]
1×10^5 cells of CAR^+/mPSCs^Oct-4^_^hi C1 clone were subcutaneously injected into 8-week-old male severe combined immunodeficiency (SCID) mice. […] Tumor dimensions were measured using calipers once every 2 or 3 d, and volumes (cm^3) were calculated according to the standard formula: length×width^2/2. […]

Where [8] appears, read: IC50 in C1, E9, C7 clones versus A549 cells.
[9] abbreviates: Mus musculus, read-out: IC50 of paclitaxel.

As to `N.N.[Cl][Pt][Cl]` [Cisplatin, cisplatin], the IC50 was 34.7 ± 1.4 µM in test [1] (read-out: IC50 of cisplatin); 26.4 ± 2.3 µM in test [2] (read-out: IC50 of cisplatin); 32.7 ± 1.6 µM in test [3] (read-out: IC50 of cisplatin); 13.5 ± 2.2 µM in test [4] (read-out: IC50 of cisplatin); 26.4 to 34.7 µM in test [5] (read-out: IC50 of cisplatin). Further, the “resistance to cisplatin compared to the A549 cells” value in test [5] (setting [8]) is 2-3 fold.
For `CC(=O)O[C@H]1C(=O)[C@@]2(C)[C@H]([C@H](OC(=O)c3ccccc3)[C@]3(O)C[C@H](OC(=O)[C@H](O)[C@@H](NC(=O)c4ccccc4)c4ccccc4)C(C)=C1C3(C)C)[C@]1(OC(C)=O)CO[C@@H]1C[C@@H]2O` [Paclitaxel, paclitaxel], the IC50 is 0.0472 ± 0.002 µM in test [1] (setting [9]); 0.0432 ± 0.0036 µM in test [2] (setting [9]); 0.045 ± 0.0025 µM in test [3] (setting [9]); 0.0082 ± 0.0035 µM in test [4] (Homo sapiens, read-out: IC50 of paclitaxel); 0.0432 to 0.0472 µM in test [5] (setting [9]). Also, the “IC50 of paclitaxel higher than that of the A549 cells” value in test [5] (setting [8]) is given as “approximately 6 fold”.
In the case of `COc1ccc2cc(-c3nc(-c4ccc([S+](C)[O-])cc4)[nH]c3-c3ccncc3)ccc2c1` (stereo not drawn) [Tie2 kinase inhibitor], in test [6], the “blood vessel formation (branch point number)” value is “inhibited the blood vessel formation; also recorded: decreases the blood vessel formation induced by C1 clone”. Moreover, the “tumor volume / tumor growth” value in test [7] was “the tumor growth of C1 clone is inhibited”; in test [7] (listed as Tie2 inhibitor), “significantly reduced the tumor volume”.

What is called IC50 is the concentration that inhibits the measured activity by half.
